According to article PMC6264390, “Design, Synthesis and Structure-activity Studies of Rhodanine Derivatives as HIV-1 Integrase Inhibitors” (Molecules, 2010):
Where two headings read alike, the source gives them in different places.

What was measured:
HIV-1 IN = molecular target: T1, HIV-1 IN (Human immunodeficiency virus type 1 group M subtype B, UniProt P12497); experiment: In vitro IN inhibition assay (3’-processing and strand transfer); assay type: biochemical
T1 construct: pre-incubated with purified recombinant IN (at a final concentration of 200 nM); made in house
Summary of the method: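 Recombinant HIV-1 IN (200 nM) preincubated with compound 30 min at 30 °C in MnCl2-containing buffer (MgCl2 plus PEG for Mg2+ format), then 1 h with 20 nM 5'-32P-labeled 21-mer duplex. 3'-processing and strand-transfer products resolved on denaturing gels, phosphorimager-quantified; IC50 from log-concentration versus % inhibition.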

[1] = molecular target: T2, human apurinic/apyrimidinic endonuclease 1 (APE1) (Homo sapiens, UniProt P27695); experiment: APE1 inhibition assay; assay type: biochemical; settings: for APE1 inhibition (in words): at 100 μM; for IC50: read-out: Inhibition of APE1 catalytic activity IC50
T2 construct: His; made in house
T2 sequence (P27695 whole entry): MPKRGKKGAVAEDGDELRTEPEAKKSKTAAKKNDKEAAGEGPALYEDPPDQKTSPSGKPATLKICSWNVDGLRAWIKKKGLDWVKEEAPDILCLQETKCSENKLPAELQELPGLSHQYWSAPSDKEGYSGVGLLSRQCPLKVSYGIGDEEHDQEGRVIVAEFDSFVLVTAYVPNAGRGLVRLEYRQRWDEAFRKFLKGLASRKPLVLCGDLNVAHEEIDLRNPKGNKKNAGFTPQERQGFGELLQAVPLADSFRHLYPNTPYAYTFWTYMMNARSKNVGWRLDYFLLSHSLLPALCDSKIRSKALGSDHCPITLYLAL
Summary of the method: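 His-tagged APE1 (0.05 nM) preincubated with compound 10 min at 30 °C in MOPS pH 7.2 buffer with 7.5 mM MnCl2 and 10% DMSO, then 200 nM 5′-32P-labelled abasic (THF) duplex added for 10 min. Incision products resolved on denaturing gel, phosphorimaged; IC50 from %I versus log concentration.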

HIV-1 = experiment: MT-4 cell infectivity assay; assay type: cell-based; settings: MT-4 cells
IN = tested on: IN; design: method as in PMID 15634005; settings: cited from earlier work
[2] = Mn2+ cofactor (7.5 mM MnCl2), read-out: Inhibition of IN catalytic activity IC50, 3’-Processing
[3] = Mn2+ cofactor (7.5 mM MnCl2), read-out: Inhibition of IN catalytic activity IC50, Strand Transfer

| SMILES | IC50 (HIV-1 IN; [2]) [µM] | IC50 (HIV-1 IN; [3]) [µM] | melting point [°C] | APE1 inhibition (in words) [1] | IC50 [1] [µM] | antiviral activity against HIV-1 (HIV-1) | selectivity for IN than APE1 (HIV-1 IN; IN versus APE1) [fold] | IC50 (HIV-1 IN; in the presence of Mg^2+ as the cofactor, read-out: Inhibition of IN catalytic activity IC50, 3’-Processing, Mg2+ (converted)) [µM] | IC50 (HIV-1 IN; in the presence of Mg^2+ as the cofactor, read-out: Inhibition of IN catalytic activity IC50, Strand Transfer, Mg2+ (converted)) [µM] | IC50 (IN; read-out: IC50, 3’-processing) [µM] | IC50 (IN; read-out: IC50, strand transfer) [µM] |
| --- | --- | --- | --- | --- | --- | --- | --- | --- | --- | --- | --- |
| O=C(Nc1ccc(O)cc1)C(=S)NN1C(=O)C(=Cc2cc(Br)cc(Br)c2O)SC1=S [Compound 51, 2-{[5-(3,5-Dibromo-2-hydroxybenzylidene)-4-oxo-2-thioxo-1,3-thiazolidin-3-yl]amino}-N-(4-hydroxy-phenyl)-2-thioxoacetamide] | 28 ± 1 | 21 ± 7 | 189 to 190 | did not show any significant APE1 inhibition | > 100 | did not show any significant antiviral activity | – | – | – | – | – |
| O=C(Nc1ccc(O)cc1)C(=S)NN1C(=O)C(=Cc2cc(N=Nc3ccccc3)ccc2O)SC1=S [Compound 48, N-(4-hydroxyphenyl)-2-[(5-{2-hydroxy-5-[(E)-phenyldiazenyl]benzylidene}-4-oxo-2-thioxo-1,3-thiaz-olidin-3-yl)amino]-2-thioxoacetamide] | 17 ± 7 | 8 ± 2 | 145 to 146 | did not show any significant APE1 inhibition | > 100 | did not show any significant antiviral activity | – | – | – | – | – |
| O=C(Nc1ccc(O)cc1)C(=S)NN1C(=O)C(=Cc2cc(I)cc(I)c2O)SC1=S [Compound 53, 2-{[5-(2-Hydroxy-3,5-diiodobenzylidene)-4-oxo-2-thioxo-1,3-thiazolidin-3-yl]amino}-N-(4-hydroxy-phenyl)-2-thioxoacetamide] | 7 ± 3 | 3 ± 2 | 157 to 158 | – | 62 ± 3 | did not show any significant antiviral activity | 20 | 12.5 | 11 | – | – |
| O=C(O)c1ccc(N2C(=O)/C(=C/c3ccccc3)SC2=S)cc1 [Compound 1] | – | – | – | – | – | – | – | – | – | 15 | 11 |
| CCN(CC)c1ccc(C=C2SC(=S)N(NC(=S)C(=O)Nc3ccc(O)cc3)C2=O)c(O)c1 [Compound 47, 2-({5-[4-(Diethylamino)-2-hydroxybenzylidene]-4-oxo-2-thioxo-1,3-thiazolidin-3-yl}amino)-N-(4-hydroxyphenyl)-2-thioxoacetamide] | > 100 | > 100 | 206 to 207 | – | > 100 | – | – | – | – | – | – |
